Test results published in ChEMBL document CHEMBL5724914, “Linking interpersonal differences in gut microbiota composition and drug biotransformation activity” (2024).

Experiments:
[1] = human gut metagenome, 24 h, 2 µM
[2] = human gut metagenome, 24 h, 2 µM; remark: listed apart in the source
[3] = The drug is tested on Z-020 corresponding to rabbit gut metagenome with ENA study accession number: PRJEB37062 and ENA sample accession number: ERS12561819 for biotransformation under anaerobic condition. The drug concentrations were measured over 9 timepoints collected between 0 and 24 hours of incubation by liquid-chromatography-coupled mass spectrometry (LC–MS); settings: 2 µM
[4] = human gut metagenome, 24 h, 2 µM; remark: listed apart in the source
[5] = human gut metagenome, 24 h, 2 µM; remark: listed apart in the source
[6] = The drug is tested on WLS-069 corresponding to human gut metagenome with ENA study accession number: PRJEB37062 and ENA sample accession number: ERS12561748 for biotransformation under anaerobic condition. The drug concentrations were measured over 9 timepoints collected between 0 and 24 hours of incubation by liquid-chromatography-coupled mass spectrometry (LC–MS); settings: 2 µM
[7] = The drug is tested on WLS-039 corresponding to human gut metagenome with ENA study accession number: PRJEB37062 and ENA sample accession number: ERS12561746 for biotransformation under anaerobic condition. The drug concentrations were measured over 9 timepoints collected between 0 and 24 hours of incubation by liquid-chromatography-coupled mass spectrometry (LC–MS); settings: 2 µM
[8] = The drug is tested on Z-029 corresponding to rat gut metagenome with ENA study accession number: PRJEB37062 and ENA sample accession number: ERS12561828 for biotransformation under anaerobic condition. The drug concentrations were measured over 9 timepoints collected between 0 and 24 hours of incubation by liquid-chromatography-coupled mass spectrometry (LC–MS); settings: 2 µM
[9] = The drug is tested on WLS-007 corresponding to human gut metagenome with ENA study accession number: PRJEB37062 and ENA sample accession number: ERS12561742 for biotransformation under anaerobic condition. The drug concentrations were measured over 9 timepoints collected between 0 and 24 hours of incubation by liquid-chromatography-coupled mass spectrometry (LC–MS); settings: 2 µM
[10] = The drug is tested on Z-024 corresponding to pig gut metagenome with ENA study accession number: PRJEB37062 and ENA sample accession number: ERS12561823 for biotransformation under anaerobic condition. The drug concentrations were measured over 9 timepoints collected between 0 and 24 hours of incubation by liquid-chromatography-coupled mass spectrometry (LC–MS); settings: 2 µM
[11] = human gut metagenome, 24 h, 2 µM; remark: listed apart in the source
[12] = The drug is tested on Z-001 corresponding to mouse gut metagenome with ENA study accession number: PRJEB37062 and ENA sample accession number: ERS12561801 for biotransformation under anaerobic condition. The drug concentrations were measured over 9 timepoints collected between 0 and 24 hours of incubation by liquid-chromatography-coupled mass spectrometry (LC–MS); settings: 2 µM
[13] = The drug is tested on Z-004 corresponding to metagenome with ENA study accession number: PRJEB37062 and ENA sample accession number: ERS12561804 for biotransformation under anaerobic condition. The drug concentrations were measured over 9 timepoints collected between 0 and 24 hours of incubation by liquid-chromatography-coupled mass spectrometry (LC–MS); settings: 2 µM
[14] = The drug is tested on WLS-240 corresponding to human gut metagenome with ENA study accession number: PRJEB37062 and ENA sample accession number: ERS12561773 for biotransformation under anaerobic condition. The drug concentrations were measured over 9 timepoints collected between 0 and 24 hours of incubation by liquid-chromatography-coupled mass spectrometry (LC–MS); settings: 2 µM
[15] = human gut metagenome, 24 h, 2 µM; remark: listed apart in the source
[16] = human gut metagenome, 24 h, 2 µM; remark: listed apart in the source
[17] = The drug is tested on Z-011 corresponding to mouse gut metagenome with ENA study accession number: PRJEB37062 and ENA sample accession number: ERS12561811 for biotransformation under anaerobic condition. The drug concentrations were measured over 9 timepoints collected between 0 and 24 hours of incubation by liquid-chromatography-coupled mass spectrometry (LC–MS); settings: 2 µM
[18] = The drug is tested on Z-021 corresponding to metagenome with ENA study accession number: PRJEB37062 and ENA sample accession number: ERS12561820 for biotransformation under anaerobic condition. The drug concentrations were measured over 9 timepoints collected between 0 and 24 hours of incubation by liquid-chromatography-coupled mass spectrometry (LC–MS); settings: 2 µM
[19] = The drug is tested on WLS-170 corresponding to human gut metagenome with ENA study accession number: PRJEB37062 and ENA sample accession number: ERS12561762 for biotransformation under anaerobic condition. The drug concentrations were measured over 9 timepoints collected between 0 and 24 hours of incubation by liquid-chromatography-coupled mass spectrometry (LC–MS); settings: 2 µM
[20] = The drug is tested on Z-006 corresponding to mouse gut metagenome with ENA study accession number: PRJEB37062 and ENA sample accession number: ERS12561806 for biotransformation under anaerobic condition. The drug concentrations were measured over 9 timepoints collected between 0 and 24 hours of incubation by liquid-chromatography-coupled mass spectrometry (LC–MS); settings: 2 µM
Note: call rule not given here.

Structure (SMILES) | Bacterial Biotransformation [1] | Bacterial Biotransformation [2] | Bacterial Biotransformation [3] | Bacterial Biotransformation [4] | Bacterial Biotransformation [5] | Bacterial Biotransformation [6] | Bacterial Biotransformation [7] | Bacterial Biotransformation [8] | Bacterial Biotransformation [9] | Bacterial Biotransformation [10] | Bacterial Biotransformation [11] | Bacterial Biotransformation [12] | Bacterial Biotransformation [13] | Bacterial Biotransformation [14] | Bacterial Biotransformation [15] | Bacterial Biotransformation [16] | Bacterial Biotransformation [17] | Bacterial Biotransformation [18] | Bacterial Biotransformation [19] | Bacterial Biotransformation [20]
CC(C)NCC(O)COc1ccc(CC(N)=O)cc1 (stereo not given) [ATENOLOL] | Compound NOT metabolized | Compound metabolized | Compound NOT metabolized | Compound NOT metabolized | Compound NOT metabolized | Compound metabolized | Compound NOT metabolized | Compound NOT metabolized | Compound NOT metabolized | Compound NOT metabolized | Compound NOT metabolized | Compound NOT metabolized | Compound NOT metabolized | Compound NOT metabolized | Compound NOT metabolized | Compound NOT metabolized | Compound NOT metabolized | Compound NOT metabolized | Compound metabolized | Compound NOT metabolized
CC(=O)OCC(=O)[C@@]1(OC(C)=O)[C@@H](C)C[C@H]2[C@@H]3C[C@H](F)C4=CC(=O)C=C[C@]4(C)[C@@]3(F)[C@@H](O)C[C@@]21C [DIFLORASONE DIACETATE] | Compound metabolized | Compound metabolized | Compound metabolized | Compound metabolized | Compound metabolized | Compound metabolized | Compound metabolized | Compound NOT metabolized | Compound metabolized | Compound NOT metabolized | Compound metabolized | Compound metabolized | Compound NOT metabolized | Compound metabolized | Compound metabolized | Compound NOT metabolized | Compound metabolized | Compound metabolized | Compound metabolized | Compound metabolized
CN(C)CCC=C1c2ccccc2COc2ccccc21 [DOXEPIN] | Compound NOT metabolized | Compound NOT metabolized | Compound NOT metabolized | Compound metabolized | Compound NOT metabolized | Compound metabolized | Compound metabolized | Compound NOT metabolized | Compound metabolized | Compound metabolized | Compound NOT metabolized | Compound NOT metabolized | Compound NOT metabolized | Compound metabolized | Compound NOT metabolized | Compound NOT metabolized | Compound NOT metabolized | Compound NOT metabolized | Compound metabolized | Compound NOT metabolized
C[C@]12CCC(=O)C=C1[C@@H]1C[C@@H]1[C@H]1[C@@H]3[C@@H]4C[C@@H]4[C@@]4(CCC(=O)O4)[C@@]3(C)CC[C@@H]12 [DROSPIRENONE] | Compound NOT metabolized | Compound metabolized | Compound metabolized | Compound metabolized | Compound metabolized | Compound metabolized | Compound metabolized | Compound NOT metabolized | Compound metabolized | Compound NOT metabolized | Compound metabolized | Compound NOT metabolized | Compound NOT metabolized | Compound metabolized | Compound NOT metabolized | Compound NOT metabolized | Compound NOT metabolized | Compound metabolized | Compound metabolized | Compound metabolized
CC(C)c1c(CN(C)C(C)Cc2ccccc2)n(C)n(-c2ccccc2)c1=O (stereo not given) [FAMPROFAZONE] | Compound metabolized | Compound metabolized | Compound NOT metabolized | Compound metabolized | Compound metabolized | Compound metabolized | Compound metabolized | Compound NOT metabolized | Compound metabolized | Compound metabolized | Compound metabolized | Compound metabolized | Compound metabolized | Compound metabolized | Compound metabolized | Compound metabolized | Compound metabolized | Compound metabolized | Compound metabolized | Compound metabolized
